Measured values as given in a melting point compilation (Tetko et al.; mined from patent text by program, amines drawn as free bases though some values may be those of a salt).

Compared with `CNC(=NCCSCc1ncccc1OC)NC#N`, `O=C(Nc1c[nH]nc1C(=O)NCCSc1ccccn1)c1ccccn1` is higher in melting point: 122 to 123 °C for the first, 162 to 163 °C for the second.

First: Cc1ccc(-c2nn(Cc3ccccc3)c(N)c2C#N)cc1
Second: Nc1ccc(-c2n[nH]c3c2sc2ccccc23)cc1
The melting point of the first is higher: 162 to 163 °C for the first, 113 to 115 °C for the second.

First: O=C(O)c1cccc(C(=O)c2ccc(F)cc2)c1
Second: Cc1c(CCC(=O)O)cccc1C(=O)c1ccc(Cl)cc1
The melting point of the first is higher: 180 °C for the first, 144 to 148 °C for the second.

First: CN1Cc2c(C#N)ncn2-c2ccsc2C1=O
Second: Cc1cccc(C)c1-n1c(C)c(C#N)c(=O)[nH]c1=O
The melting point of the first is lower: 206 to 208 °C for the first, 302 to 303 °C for the second.

First: CNc1ccn2c(C(=O)c3ccc([N+](=O)[O-])c(OC)c3)c(C)c(C(=O)OCc3ccccc3)c2c1
Second: COc1ccc(-c2cccc(C(=O)O)c2)c2cc(Cc3cccc(C(F)(F)F)c3)oc12
The melting point of the first is higher: 228 °C for the first, 118 to 119 °C for the second.

First: CCOC(=O)Oc1ccc(C(=O)OCCN2CCN(CCN3CCOCC3)CC2)cc1
Second: CC(=O)Nc1ccc(C(=O)N2CCOCC2)cc1N
The melting point of the first is lower: 85 to 87 °C for the first, 198 to 200 °C for the second.

First: CCNC(=O)Nc1ccc(CC(CO)NCC(O)COc2ccccc2)cc1 (stereo not given)
Second: CCC(C(=O)O)c1ccc2c(=O)c3ccccc3ccc2c1 (stereo not given)
The melting point of the first is lower: 129 to 130 °C for the first, 147 to 148 °C for the second.

First: COC(=O)c1c(C(=O)OC)c(-c2cc(OC)c(OC)c(OC)c2)c2c(OC)c(OC)c(OC)cc2c1O
Second: COc1cc2c(cc1OCc1ccccc1)C(OC)CN(Cc1cc(OC)c(OC)c(OC)c1)C2 (stereo not given)
The melting point of the first is higher: 165 to 167 °C for the first, 89 to 90 °C for the second.

First: Cc1cc(Nc2c(C#N)cnc3cc(Br)ccc23)ccc1OCc1ccccn1
Second: O=C(/C=C/c1ccc2cc[nH]c2c1)CC(=O)/C=C/c1ccc(OCc2ccccn2)cc1O
The melting point of the first is higher: 238 to 241 °C for the first, 188 to 190 °C for the second.

`O=C1c2ccccc2C(=O)N1CCCCN1CCN(c2csc3cc(F)ccc23)CC1` and `COc1ccc(S(=O)(=O)N(COCC[Si](C)(C)C)c2ccccc2-c2cc(F)ccc2C(C)=O)cc1` fall in the same range of melting point: 94 to 95 °C for the first, 94 to 95 °C for the second.

First: CCOC(=O)C(=O)c1cn(CCN(C)C)c2ccccc12
Second: CN(C)CCNC(=O)N1CCC(Oc2cccc(Cl)c2Cl)C1 (stereo not given)
The melting point of the first is lower: 71 to 72 °C for the first, 94 to 95 °C for the second.

First: CC1(C)Oc2ccc(C#N)cc2[C@@H](Br)[C@@H]1O (relative stereo)
Second: COC(=O)C(=NO)c1nc2ccc(C)cc2oc1=O
The melting point of the first is lower: 111 to 112 °C for the first, 189 to 190 °C for the second.

First: CCCCOc1nc(N)c2nc(OC)n(CCS(=O)(=O)c3cccc(CC(=O)OC)c3)c2n1
Second: CCOC(=O)C(=Cc1cccn2cc(-c3cccc(OC)c3)nc12)N=[N+]=[N-]
The melting point of the first is higher: 246 to 247 °C for the first, 109 to 111 °C for the second.

First: CC1CC(=O)NN=C1c1ccc(-c2ccc(=O)[nH]n2)cc1 (stereo not given)
Second: C[C@@H](O)c1nccc(N2CCC(=Cc3cccc(Cl)c3)CC2)n1
The melting point of the first is higher: > 250 °C for the first, 45 to 55 °C for the second.

First: CC(=O)c1cc(CN2CCNC2=O)ccc1O
Second: O=c1ncccn1Cc1ccc2ccccc2c1
The melting point of the first is lower: 131 to 133 °C for the first, 136 to 145 °C for the second.

First: CCCCCCCCCCCCCCCCCCCCCCOC(=O)C(C)O (stereo not given)
Second: CCCCC1(CCCC)NC(=O)c2ccccc2N1C
The melting point of the first is lower: 57 °C for the first, 77 to 78 °C for the second.

Compared with `COc1cc(C2CCCO2)cc(OC)c1OC` (stereo not given), `COc1ccc2c3c1C(=O)CC3CCO2` (stereo not given) is higher in melting point: 102 to 104 °C for the first, 122 to 124 °C for the second.

Compared with `NC(=O)CNC(=O)c1cccc(-c2cccc3c(F)c(Cc4cccc(C(F)(F)F)c4)sc23)c1`, `Nc1cnc2c(NC(=O)c3c(Cl)cccc3Cl)cccc2c1-n1ccnc1` is higher in melting point: 127 to 128 °C for the first, > 250 °C for the second.

First: Nc1ccc(C2(OC(=O)Nc3ccccc3)NCCC(c3ccccc3)O2)cc1 (stereo not given)
Second: CC(=O)Nc1ccccc1CC1NC(=O)NC1=O (stereo not given)
The melting point of the first is lower: 110 °C for the first, 200 to 202 °C for the second.

First: Nc1ncc2cc(-c3c(F)cccc3F)c(N)nc2n1
Second: Nc1nc(N)c(C(=O)n2ccnc2)nc1Cl
The melting point of the first is higher: > 300 °C for the first, 232 to 234 °C for the second.

First: COc1cc(N)nc(Cl)n1
Second: Cn1cc(-c2nc(C(F)(F)F)c[nH]2)cn1
The melting point of the first is lower: 186 °C for the first, 206 to 207 °C for the second.

First: CN(C)S(=O)(=O)c1ccc(F)cc1
Second: CC(C)c1cc(C=Cc2ccccc2O)on1
The melting point of the first is lower: 40 to 43 °C for the first, 129 to 133 °C for the second.

`O=Cc1cc2c(cc1C=O)[C@H](CO)OC2=O` and `CC1=C(C(=O)OC(C)(C)C)C(c2cccc(Cl)c2Cl)C(C(=O)OC(C)(C)C)=C(C)N1` fall in the same range of melting point: 144 to 145 °C for the first, 144 to 145 °C for the second.

First: CN1CCN(c2cccc(Nc3cc(NC(=O)Nc4c(Cl)cc(Cl)cc4Cl)ncn3)c2)CC1
Second: Cc1c(-c2ccccc2)sc2nc(NC3CCCCC3)[nH]c(=O)c12
The melting point of the first is lower: 138 to 142 °C for the first, 265 to 270 °C for the second.

Compared with `CCCN1CCC23c4cccc(OC)c4OC2C2CCC3(C1)C(COC)C2` (stereo not given), `CC1(C)CCc2c(N3CCOCC3)nc3sc4c(NCCc5c[nH]cn5)ncnc4c3c2C1` is higher in melting point: 130 to 131 °C for the first, 223 to 224 °C for the second.
